The values that follow come from article PMC10889159, “Synthesis and Antitumor Activity Evaluation of Novel Echinatin Derivatives with a 1,3,4-Oxadiazole Moiety” (International Journal of Molecular Sciences, 2024).

One series has as its system KU812. In words: CCK8 antiproliferative assay, KU812. It is filed as cell-based. Particulars: Homo sapiens, CCK8, 48 h, mean ± SD, n = 3. On the procedure: (§1) For all biological assays, all of the synthesized compounds were dissolved in DMSO. The cytotoxicity of all of the target compounds against the HCT116, K562, KU812, and HT-29 cells was determined by an CCK8 assay in vitro using adriamycin and echinatin as the controls. About 3000 cells per well were seeded in a 96-well plate and incubated for 24 h. Then, the cells were stimulated with different concentrations of test compounds for 48 h. The CCK8 solution (100 µL 0.5 mg/mL^−1) was added to each well, and the cells were incubated for another 4 h. Then, the absorbance of the samples was measured at 450 nm. The IC50 values were calculated according to the Logit method after obtaining the inhibitory rate. All experiments were repeated three times.
A general note: Tetrazolium assays rely on reduction of a dye to a coloured formazan, in cell work by metabolically active cells.

Another series has as its system K562. In words: CCK8 antiproliferative assay, K562. The series is classed as cell-based. Particulars: Homo sapiens, CCK8, 48 h, mean ± SD, n = 3. The procedure:
as §1

In a further series the test system is HCT116. Kind of series: CCK8 antiproliferative assay, HCT116. The following applies: Homo sapiens, HCT-116; CCK8, 48 h, mean ± SD, n = 3. It is filed as cell-based. The procedure:
as §1

For another series, the system named is HT-29. In words: CCK8 antiproliferative assay, HT-29. It is filed as cell-based. Particulars: Homo sapiens, CCK8, 48 h, mean ± SD, n = 3. On the procedure: as §1
Another series concerns the target c-KIT (Homo sapiens, UniProt P10721). Kind of series: Biochemical c-KIT activity assay (ADP-Glo). Particulars: 20 μM ATP, read-out: IC50 for c-KIT inhibition. The procedure: The enzymatic activities of c-KIT were determined by in vitro kinase assays using the ADP-Glo reagent (Promega, Madison, WI, USA) according to the manufacturer’s instructions. Briefly, 250 ng of c-KIT protein was incubated with compounds in 10 μL of reaction buffer (40 mM Tris−HCl, pH 7.4, 2 mM MnCl2, 2 mM DTT, 20 mM MgCl2, 0.1 mg/mL bovine serum albumin, 1 mM Na3VO4) containing 20 μΜ ATP and 40 μM poly (Glu4-Tyr1) as substrates at 30 °C for 150 min. The ADP-Glo reagent was then added, and the mixture was incubated at 25 °C for 40 min. The kinase detection reagent was added for another 30 min at 25 °C. The converted ADP was determined by luminescence measurement using a Wallac Vector 1420 multilabel counter (PerkinElmer).
A general note: ADP-Glo turns the ADP formed in a reaction into a luminescent signal.

Each structure is given as a SMILES string.

Chain of c-KIT (P10721 26-976): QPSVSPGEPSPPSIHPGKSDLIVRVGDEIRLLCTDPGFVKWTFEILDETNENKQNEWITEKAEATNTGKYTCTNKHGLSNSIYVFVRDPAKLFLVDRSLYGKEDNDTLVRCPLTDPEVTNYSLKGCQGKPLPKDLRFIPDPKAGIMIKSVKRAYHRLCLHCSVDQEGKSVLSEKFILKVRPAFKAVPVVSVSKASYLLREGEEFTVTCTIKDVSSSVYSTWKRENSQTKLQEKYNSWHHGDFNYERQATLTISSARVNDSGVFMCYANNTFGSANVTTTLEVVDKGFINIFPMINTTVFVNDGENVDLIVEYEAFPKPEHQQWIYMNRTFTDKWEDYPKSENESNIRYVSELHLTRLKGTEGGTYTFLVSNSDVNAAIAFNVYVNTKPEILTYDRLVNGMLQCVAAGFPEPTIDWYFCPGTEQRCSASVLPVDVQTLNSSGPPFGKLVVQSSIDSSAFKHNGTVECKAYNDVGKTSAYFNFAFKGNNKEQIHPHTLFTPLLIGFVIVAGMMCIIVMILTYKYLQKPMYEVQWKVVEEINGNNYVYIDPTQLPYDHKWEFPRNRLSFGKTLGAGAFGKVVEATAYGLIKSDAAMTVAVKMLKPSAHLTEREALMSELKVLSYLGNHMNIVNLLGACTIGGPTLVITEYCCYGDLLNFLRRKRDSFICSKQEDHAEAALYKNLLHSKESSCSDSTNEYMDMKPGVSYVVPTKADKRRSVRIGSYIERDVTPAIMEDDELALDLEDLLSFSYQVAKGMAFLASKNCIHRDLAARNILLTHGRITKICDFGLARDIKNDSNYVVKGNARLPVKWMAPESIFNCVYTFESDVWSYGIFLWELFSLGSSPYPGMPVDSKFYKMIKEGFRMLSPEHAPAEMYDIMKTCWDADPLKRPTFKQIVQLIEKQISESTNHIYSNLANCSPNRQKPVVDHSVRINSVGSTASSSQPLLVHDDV

Take `COc1cccc2c1C(=O)c1c(O)c3c(c(O)c1C2=O)C[C@@](O)(C(=O)CO)C[C@@H]3O[C@H]1C[C@H](N)[C@H](O)[C@H](C)O1` [Adriamycin, reference compound]: the IC50 (commonly the midpoint of a concentration-inhibition curve) with KU812 came out at 4.14 ± 0.53 µM; in the series with K562 it was 4.22 ± 0.44 µM; in the series with HCT116 it was 1.5 ± 0.19 µM; in the series with HT-29 it was 2.7 ± 0.71 µM.
In the case of `COc1cc(O)ccc1/C=C/C(=O)c1ccc(OCc2nnc(Nc3ccc(C)cc3)o2)cc1` [Compound T1, (E)-3-(4-Hydroxy-2-methoxyphenyl)-1-{4-{[5-(p-tolylamino)-1,3,4-oxadiazol-2-yl]methoxy}phenyl}propen-one], the melting point (as a rule, the temperature of the solid-liquid transition) lay within 186.1 to 189.4 °C. In the series with KU812, this compound came in with an IC50 of 9.55 ± 0.17 µM. The compound further returned an IC50 in the series on K562 of 22.05 ± 0.12 µM. For the same compound, half-maximal inhibition in the series on HCT116 (IC50) was put at 4.85 ± 0.32 µM. In addition, the IC50 in the series on HT-29 turned out to be 7.1 ± 0.45 µM.
In turn, `COc1ccc(Nc2nnc(COc3ccc(C(=O)/C=C/c4ccc(O)cc4OC)cc3)o2)cc1` [Compound T2, (E)-3-(4-Hydroxy-2-methoxyphenyl)-1-{4-{{5-[(4-methoxyphenyl)amino]-1,3,4-oxadiazol-2-yl}methoxy}phenyl}p-ropenone] showed a melting point of 212.6 to 213.6 °C. For the same compound, inhibition in the series with KU812 was half-maximal at 13.3 ± 0.39 µM (IC50). Further, the IC50 in the series with K562 is greater than 30 µM. Further, the midpoint of inhibition with HCT116, the IC50, lay at 3.97 ± 0.53 µM. For the same compound, in the series on HT-29, the IC50 worked out at 8.78 ± 0.12 µM.
For `CCOc1ccc(Nc2nnc(COc3ccc(C(=O)/C=C/c4ccc(O)cc4OC)cc3)o2)cc1` [Compound T3], the melting point lay within 200.1 to 200.4 °C. For the same compound, in the series on KU812, the IC50 was determined as 17.2 ± 0.67 µM. On c-KIT, the IC50 was found to be 0.237 µM. Also, the IC50 in the series on K562 is 15.5 ± 1.09 µM. Further, in the series with HCT116, the IC50 is 2.47 ± 0.56 µM. For the same compound, the IC50 in the series with HT-29 was 5.16 ± 0.11 µM.
For `COc1cc(O)ccc1/C=C/C(=O)c1ccc(OCc2nnc(Nc3ccc(OC(F)(F)F)cc3)o2)cc1` [Compound T5], the melting point is 227.6 to 228.4 °C. Besides, the IC50 with KU812 was found to be 12.45 ± 0.02 µM. Besides, the IC50 in the series on K562 was greater than 30 µM. This compound came in with an IC50 in the series on HCT116 of 3.94 ± 0.33 µM. Further, half-maximal inhibition with HT-29 (IC50) required 3.64 ± 0.21 µM.
Take `COc1cc(O)ccc1/C=C/C(=O)c1ccc(OCc2nnc(Nc3ccc(F)cc3)o2)cc1` [Compound T6, (E)-1-{4-{{5-[(4-Fluorophenyl)amino]-1,3,4-oxadiazol-2-yl}methoxy}phenyl}-3-(4-hydroxy-2-methoxyphen-yl)propenone]: the melting point is 211.8 to 214.1 °C. The compound further displayed an IC50 in the series with KU812 of 16.9 ± 1.58 µM. Besides, in the series on K562, the IC50 is greater than 30 µM. The compound also came in with an IC50 with HCT116 of 4.39 ± 0.71 µM. The IC50 in the series with HT-29 is greater than 30 µM.
`COc1cc(O)ccc1/C=C/C(=O)c1ccc(OCc2nnc(Nc3ccc(Cl)cc3)o2)cc1` [Compound T7, (E)-1-{4-{{5-[(4-Chlorophenyl)amino]-1,3,4-oxadiazol-2-yl}methoxy}phenyl}-3-(4-hydroxy-2-methoxyphen-yl)propenone] returned a melting point of 211.4 to 212.1 °C. In the series with KU812, inhibition was half-maximal at 17.5 ± 1.77 µM (IC50). This compound yielded an IC50 in the series with K562 greater than 30 µM. Also, in the series on HCT116, the IC50 was found to be 2.08 ± 0.54 µM. The compound also yielded an IC50 in the series on HT-29 greater than 30 µM.
Turning to `COc1cc(O)ccc1/C=C/C(=O)c1ccc(OCc2nnc(Nc3ccc(C(C)(C)C)cc3)o2)cc1` [Compound T8], the melting point fell in the range of 197.1 to 198.5 °C. In the series with KU812, this compound displayed an IC50 of 12 ± 1.28 µM. Besides, the IC50 on c-KIT is 0.613 µM. For the same compound, in the series on K562, the IC50 was 19.48 ± 0.12 µM. Further, the IC50 with HCT116 was found to be 6.51 ± 0.19 µM. Besides, in the series with HT-29, the IC50 came out at 4.94 ± 0.25 µM.
For `COc1cc(O)ccc1/C=C/C(=O)c1ccc(OCc2nnc(Nc3ccccc3C)o2)cc1` [Compound T9], the melting point was 206.5 to 209.2 °C. Further, the IC50 in the series with KU812 was greater than 30 µM. Also, in the series with K562, the IC50 is greater than 30 µM. Also, the IC50 in the series with HCT116 is 10 ± 0.93 µM. Also, in the series on HT-29, the IC50 was greater than 30 µM.
`COc1cc(O)ccc1/C=C/C(=O)c1ccc(OCc2nnc(Nc3cccc(C)c3)o2)cc1` [Compound T10, (E)-3-(4-Hydroxy-2-methoxyphenyl)-1-{4-{[5-(m-tolylamino)-1,3,4-oxadiazol-2-yl]methoxy}phenyl}propen-one] displayed a melting point of 187.6 to 190.8 °C. In addition, the IC50 in the series on KU812 is greater than 30 µM. The compound further showed an IC50 in the series on K562 greater than 30 µM. For the same compound, 7.62 ± 1.23 µM corresponded to half-maximal inhibition in the series on HCT116 (IC50). Besides, the IC50 in the series with HT-29 was greater than 30 µM.
Compound `CCOc1ccccc1Nc1nnc(COc2ccc(C(=O)/C=C/c3ccc(O)cc3OC)cc2)o1` [Compound T11, (E)-1-{4-{{5-[(2-Ethoxyphenyl)amino]-1,3,4-oxadiazol-2-yl}methoxy}phenyl}-3-(4-hydroxy-2-methoxyphe-nyl)propenone] gave a melting point of 175.4 to 188.3 °C. In the series with KU812, this compound displayed an IC50 greater than 30 µM. The IC50 in the series on K562 is greater than 30 µM. The same compound had an IC50 with HCT116 greater than 30 µM. In the series with HT-29, this compound showed an IC50 greater than 30 µM.
`COc1cc(O)ccc1/C=C/C(=O)c1ccc(OCc2nnc(Nc3ccccc3F)o2)cc1` [Compound T12, (E)-1-{4-{{5-[(2-Fluorophenyl)amino]-1,3,4-oxadiazol-2-yl}methoxy}phenyl}-3-(4-hydroxy-2-methoxyphen-yl)propenone] came in with a melting point of 186.2 to 187.4 °C. Besides, in the series with KU812, the concentration for half-maximal inhibition (IC50) was greater than 30 µM. Moreover, the IC50 in the series on K562 was greater than 30 µM. For the same compound, the IC50 with HCT116 was 6.14 ± 1.45 µM. This compound also had an IC50 in the series with HT-29 of 12.8 ± 0.98 µM.
Take `COc1cc(O)ccc1/C=C/C(=O)c1ccc(OCc2nnc(Nc3ccccc3Cl)o2)cc1` [Compound T13, (E)-1-{4-{{5-[(2-Chlorophenyl)amino]-1,3,4-oxadiazol-2-yl}methoxy}phenyl}-3-(4-hydroxy-2-methoxyphen-yl)propenone]: the melting point lay in the range of 191.3 to 191.8 °C. In the series with KU812, this compound displayed an IC50 greater than 30 µM. In addition, the IC50 with K562 was greater than 30 µM. In addition, in the series on HCT116, the IC50 came out at 10.2 ± 0.87 µM. This compound displayed an IC50 with HT-29 of 13.9 ± 0.67 µM.
As for `COc1cc(O)ccc1/C=C/C(=O)c1ccc(OCc2nnc(Nc3cccc(Cl)c3)o2)cc1` [Compound T14, (E)-1-{4-{{5-[(3-Chlorophenyl)amino]-1,3,4-oxadiazol-2-yl}methoxy}phenyl}-3-(4-hydroxy-2-methoxyphen-yl)propenone], the melting point was 225 to 225.9 °C. This compound returned an IC50 in the series with KU812 greater than 30 µM. In the series with K562, this compound showed an IC50 greater than 30 µM. For the same compound, the IC50 in the series on HCT116 was 9.83 ± 1.98 µM. The midpoint of inhibition with HT-29, the IC50, lay at 13.2 ± 0.53 µM.
On to `COc1cc(O)ccc1/C=C/C(=O)c1ccc(OCc2nnc(Nc3ccc(C)cc3C)o2)cc1` [Compound T15, (E)-1-{4-{{5-[(2,4-Dimethylphenyl)amino]-1,3,4-oxadiazol-2-yl}methoxy}phenyl}-3-(4-hydroxy-2-methoxy-phenyl)propenone], for which the melting point fell in the range of 192.9 to 194.1 °C. This compound also showed an IC50 with KU812 greater than 30 µM. The IC50 in the series with K562 was greater than 30 µM. The same compound displayed an IC50 with HCT116 greater than 30 µM. The same compound gave an IC50 in the series on HT-29 greater than 30 µM.
Regarding `COc1cc(O)ccc1/C=C/C(=O)c1ccc(OCc2nnc(Nc3ccc(F)cc3F)o2)cc1` [Compound T16, (E)-1-{4-{{5-[(2,4-Difluorophenyl)amino]-1,3,4-oxadiazol-2-yl}methoxy}phenyl}-3-(4-hydroxy-2-methoxy-phenyl)propenone], the melting point fell in the range of 223.4 to 223.9 °C. For the same compound, the IC50 in the series on KU812 was greater than 30 µM. Also, the IC50 with K562 is greater than 30 µM. The IC50 with HCT116 is greater than 30 µM. The IC50 in the series with HT-29 is greater than 30 µM.
Turning to `COc1cc(O)ccc1/C=C/C(=O)c1ccc(OCc2nnc(Nc3c(F)cccc3F)o2)cc1` [Compound T17, (E)-1-{4-{{5-[(2,6-Difluorophenyl)amino]-1,3,4-oxadiazol-2-yl}methoxy}phenyl}-3-(4-hydroxy-2-methoxy-phenyl)propenone], the melting point fell in the range of 193 to 194.3 °C. The compound also returned an IC50 in the series on KU812 greater than 30 µM. The compound further came in with an IC50 in the series on K562 greater than 30 µM. The same compound yielded an IC50 with HCT116 greater than 30 µM. The compound also registered an IC50 in the series with HT-29 greater than 30 µM.
`COc1cc(O)ccc1/C=C/C(=O)c1ccc(OCc2nnc(Nc3c(Cl)cccc3Cl)o2)cc1` [Compound T18, (E)-1-{4-{{5-[(2,6-Dichlorophenyl)amino]-1,3,4-oxadiazol-2-yl}methoxy}phenyl}-3-(4-hydroxy-2-methoxy-phenyl)propenone] had a melting point of 172.3 to 174.6 °C. The IC50 with KU812 was greater than 30 µM. Besides, the IC50 in the series with K562 is greater than 30 µM. This compound also registered an IC50 in the series with HCT116 greater than 30 µM. This compound also gave an IC50 in the series with HT-29 greater than 30 µM.
Regarding `COc1cc(O)ccc1/C=C/C(=O)c1ccc(O)cc1` [Echinatin], the IC50 with KU812 is 13.8 ± 0.33 µM; in the series on K562, greater than 30 µM; with HCT116, 4.54 ± 0.76 µM; with HT-29 it was 10.4 ± 0.87 µM.
Regarding `FC(F)(F)c1ccc(CNc2ccc(Cc3c[nH]c4ncccc34)cn2)cc1` [PLX647, reference compound], at c-KIT, the 50% inhibitory concentration (IC50) stood at 0.068 µM.
